Experimental data published in US9688760B2, “Anti-leukocyte adhesion for the mitigation of potential adverse events caused by CD3-specific binding domains” (AMGEN RESEARCH (MUNICH) GMBH, priority 2013, dated 2017).

Legend:
[1] = system: recombinant human VCAM-1; assay: Flow chamber: T cell-rolling on recombinant VCAM-1, semi short-term conditions; format: cell-based; conditions: freshly isolated T cells
Method: Recombinant proteins (rhICAM-1 #ADP4-050, rhVCAM-1 #ADP5-050 or rhP-selectin #ADP3-050, R&D Systems) were dissolved in ddH2O according to the manufacturer's instructions. Prior to rolling experiments recombinant proteins were diluted in Dulbecco's PBS with Ca^2+ and Mg^2+ (#L1815, Biochrom) and coated onto a μ-slide VI^0.4 Luer ibiTreat (#80606, ibidi) over night at 4° C. Before usage slides were washed three times with Dulbecco's PBS and blocked where indicated with 20% FBS (#10270, Gibco) in PBS for 2 h at room temperature. Blocking solution was replaced by RPMI 1640 medium (#FG1215, Biochrom) without supplements.
Isolation and characterization of human peripheral blood mononuclear cells (PBMC) and T cells from blood were performed as described in Example 2 (p. 48, 1-31).
For rolling experiments using freshly isolated T cells, these cells were resuspended in RPMI 1640 medium (#FG1215, Biochrom) without supplements to a final concentration of 1×10^6 cells/ml at the start of the experiment (t=0 min; addition of 10 ng/ml Blinatumomab (AMG 103)) and incubated for 35 min at 37° C. and 5% CO2. Cells were then filled in a perfusion set “white” (#10963, ibidi) which was connected to both a fluidic unit and the μ-slide and image sequences of 45 sec duration were recorded at t=40 min, 45 min, and 50 min as described in Example 2 (p. 50, 18-23). […]

[2] = system: ICAM-1 and P-selectin on HUVEC; assay: Immunofluorescence staining of HUVEC after T cell-rolling; format: cell-based, human; conditions: T cells pre-incubated with 10 ng/ml Blinatumomab vs untouched T cells
Method: After rolling and adhesion of T cells on HBMEC or HUVEC under flow conditions, endothelial cells were fixed using 150 μl of 4% paraformaldehyde solution (#P-6148, Sigma-Aldrich) for 30 min at 4° C. μ-slides were rinsed with 150 μl of D-PBS and subjected to immunofluorescence staining. HBMEC were first blocked with 150 μl of avidin blocking reagent (#PHA-70871, reagent 1, Dianova) for 10 min at room temperature, washed with 150 μl of D-PBS followed by incubation with 150 μl of biotin blocking reagent (#PHA-70871, reagent 2, Dianova). All following staining procedures were performed in 150 μl of D-PBS with 5% FBS at room temperature in the dark, and washing steps were done in 150 μl of D-PBS. μ-slides were incubated with 5 μg/ml polyclonal rabbit anti-human VCAM-1 (#106777, abcam) for 1 h. After washing, 20 μg/ml goat anti-rabbit IgG-DyLight350 was added for 1 h followed by washing and incubation with 15 μg/ml mouse anti-human P-selectin IgG1 (#BBA30, R&D Systems) for 2 h. After washing, goat anti-mouse IgG-Alexa488 (1:100) (#A10680, Invitrogen) was added for 1 h. […] VCAM-1 staining was monitored with a CFL EPI-FL Filter Block UV-2A (#MBE41200, Nikon), P-selectin staining with a CFL EPI-FL Filter Block GFP-B (#MBE44740, Nikon), and ICAM-1 staining with an EPI-FL Filter Block Cy3 (#MXU96213, Nikon). […]

Blinatumomab: recombinant CD19×CD3 bispecific scFv antibody consisting of four immunoglobulin variable domains assembled into a single polypeptide chain
mean T cell-rolling velocity±SD ([1]; +AMG 103 10 ng/ml with vehicle DMSO, t=40 min, coated at 20 μg/ml, control −AMG 103 259±35): 205±45 μm/sec | mean T cell-rolling velocity±SD ([1]; +AMG 103 10 ng/ml, t=45 min, coated at 10 μg/ml, with blocking, control −AMG 103 418±136): 353±72 μm/sec | surface expression of adhesion molecules on HUVEC [2]: increased surface expression of adhesion molecules ICAM-1 and P-selectin
